From US9682994B2, “Inhibitors of retroviral replication” (The Scripps Research Institute, priority 2011, dated 2017)

Assays:
[1] = system: Tat transactivation of the HIV-1 LTR; assay: Tat transactivation assay, HeLa-CD4-LTR-Luc cells; type: cell-based
Method: Chloroquine 100 μM was added to increase Tat uptake was added to all points except untreated wells. Luciferase activity was measured 24 h later using the Luciferase Assay System (Promega). Luciferase activity per protein concentration of each sample is shown as relative light units (RLU). HI: Heat Inactivated.
FIG. 2B: HeLa-LTR-Luc cells were transfected with 2 μg of a construct expressing Tat-flag driven by the thymidine kinase (TK) promoter. […] Forty hours later RLU determined as in FIG. 2A.
Luciferase activity measured and results adjusted per protein concentration of each sample, relative light units (RLU).
PL11 cells were plated at 1×10^5 cells per well in a 6 well plate. The following day recombinant Tat protein (AIDS Research and Reference Reagent Program, Cat No. 11882) at 5 μg/ml and/or Cortistatin A at increasing concentrations were added to the cells, in culture media without serum and in the presence of 100 μM of chloroquine (increases Tat uptake). Five hours later, serum was added at 5% to the culture media. Forty hours later cells were lysed with 1× Lysis Buffer and luciferase activity was measured as before. Protein concentration was determined by Bradford assay. Results corresponding to the adjustment of the luciferase activity per protein concentration of each sample are shown as RLU. […]

[2] = system: NF-kB reporter construct; assay: TNF-α activation of NF-kB luciferase reporter in TE671 cells; type: cell-based
Method: FIG. 8B: TE671 cells were transfected with an NF-kB luciferase reporter plasmid. The following day cells were treated with TNF-α in presence or absence of dCA. Cells were lysed 5 hours later and Luciferase activity was measured as in FIG. 8A.
TE671 cells were plated at 6.25×10^4 per well in a 24-well plate. Cells were transfected twenty-four hours later with either 200 ng or 400 ng of NF-kB-Luc (Promega, Cat No. E8491) using Fugene 6 (Roche) per manufacturer's instruction. […] Cells were lysed 5 hours later with 1× Lysis Buffer and luciferase activity was measured using the luciferase Assay System (Promega) on a Berthhold luminometer. Protein concentration was determined by Bradford assay. Results corresponding to the adjustment of the luciferase activity per protein concentration of each sample are shown as Relative light units (RLU). Experiments were performed in triplicate.

Compound: CN(C)[C@H]1C[C@@]23CC[C@@]4(O2)C(=CC[C@]2(C)C(c5ccc6ccncc6c5)=CC[C@H]24)C=C3[C@@H](O)[C@@H]1O [dCA, didehydro-Cortistatin A]
- basal transcription from the LTR promoter ([1]; absence of Tat, or PMA activation): did not alter basal transcription
- Tat-mediated transcriptional activation of LTR-Luc ([1]; recombinant Tat protein added): Transcriptional repression
- TNFα activation of an NF-κB reporter construct [2]: no effect
